As usually defined, the IC50 is the concentration that gives 50% inhibition.

Consider 21 molecules from publication PMC6214108, “Synthesis and In Vitro Antitumor Activity of Novel Bivalent β-Carboline-3-carboxylic Acid Derivatives with DNA as a Potential Target” (International Journal of Molecular Sciences, 2018).

Holding throughout (type): cell-based
Test [1] concerns A549 (lung carcinoma) cell line. In words: MTT cytotoxicity assay, A549. Conditions: Homo sapiens, 48 h, mean of three independent experiments, read-out: IC50 (μM) Mean ± SD, A549. The protocol: (§1) All cell lines (A549, SGC-7901, Hela, SMMC-7721, and MCF-7) were purchased from the American Type Culture Collection (Manassas, VA, USA), and were cultured in Dulbecco’s modified Eagle’s medium (DMEM, HycloneLaboratories Inc., Logan, Utah, USA) supplemented with 10% fetal bovine serum (FBS, Gibco&Invitrogen, Carlsbad, CA, USA) at 37 °C and 5% CO2.
(§2) The cytotoxic activities of β-carboline-3-carboxylic acid derivatives were investigated by the MTT method, as previously described. Cells (1 × 10^4 cells per well) seeded into 96-well plates (JET, Guangzhou, China) were incubated with DMEM containing various concentrations (2.5, 5, 10, 20, 40, and 80 μM) of β-carbolines (4A, 4B, 4C, 4D, 6a-6f, 6g-6l, 6m-6r, and 6s-6x) for 48 h at 37 °C and 5% CO2. Then, 10 µL of 5 mg/mL MTT reagent dissolved in PBS (Phosphate buffered saline) was added per well, and plates were incubated at 37 °C for 4 h. The medium was carefully removed and 100 µL dimethyl sulfoxide (DMSO) was added to dissolve the formazan crystals. The absorbance was measured at 490 nm with a microplate reader (ThermoFisher Scientific Inc., Waltham, MA, USA). The β-carbolines were dissolved in DMSO as stock solutions (10 mM) at −20 °C, and diluted in the final experimental solution using DMEM before use. A549 (lung carcinoma), SGC-7901 (gastric carcinoma), Hela (cervical carcinoma), SMMC-7721 (liver carcinoma), and MCF-7 (breast carcinoma) cell lines were used for the antitumor activity screening. The IC50 values were the mean values of three independent experiments.

Test [2] has as its system MCF-7 (breast carcinoma) cell line. In words: MTT cytotoxicity assay, MCF-7. Conditions: Homo sapiens, MCF7, 48 h, mean of three independent experiments, read-out: IC50 (μM) Mean ± SD, MCF-7. The protocol: as §1, §2
(Tetrazolium dyes change colour on reduction, which living cells bring about.)

Test [3] has as its system SMMC-7721 (liver carcinoma) cell line. In words: MTT cytotoxicity assay, SMMC-7721. Conditions: Homo sapiens, 48 h, mean of three independent experiments, read-out: IC50 (μM) Mean ± SD, SMMC-7721. The protocol:
as §1, §2

The subject of test [4] is MRC5 (normal lung cell) cell line. In words: MTT cytotoxicity assay, MRC5. Conditions: Homo sapiens, 48 h. Here is the method:
[The procedure below names another cell line; the source lists this cell line under the same test.] as §2

The test system of test [5] is SGC-7901 (gastric carcinoma) cell line. In words: MTT cytotoxicity assay, SGC-7901. Conditions: Homo sapiens, 48 h, mean of three independent experiments, read-out: IC50 (μM) Mean ± SD, SGC-7901. Here is the method: as §1, §2
Test [6] relates to Hela (cervical carcinoma) cell line. In words: MTT cytotoxicity assay, Hela. Conditions: Homo sapiens, 48 h, mean of three independent experiments, read-out: IC50 (μM) Mean ± SD, Hela. The protocol: as §1, §2

Consider `Cc1ccccc1Cn1c2ccccc2c2cc(C(=O)OCCCCOC(=O)c3cc4c5ccccc5n(Cc5ccccc5C)c4cn3)ncc21` [Compound 6h], for which the IC50 worked out at 8.09 ± 0.25 µM in test [1]; 76.7 ± 5 µM in test [2]; 24.7 ± 0.5 µM in test [3]; 50.78 ± 0.09 µM in test [4]; 17.8 ± 0.93 µM in test [5]; 45.8 ± 0.55 µM in test [6].
As to `O=C(OCCCCCOC(=O)c1cc2c3ccccc3n(Cc3ccccc3)c2cn1)c1cc2c3ccccc3n(Cc3ccccc3)c2cn1` [Compound 6c], the IC50 is 17.65 ± 0.09 µM in test [1]; 76.9 ± 3.01 µM in test [2]; 55.15 ± 0.03 µM in test [3]; 39.34 ± 0.11 µM in test [4]; 18.72 ± 0.07 µM in test [5]; 18.15 ± 0.03 µM in test [6].
With `Cc1ccccc1Cn1c2ccccc2c2cc(C(=O)OCCCCCCOC(=O)c3cc4c5ccccc5n(Cc5ccccc5C)c4cn3)ncc21` [Compound 6j], the half-inhibitory concentration (IC50) in test [1] was found to be 12.18 ± 0.06 µM; in test [2], 64.5 ± 3.31 µM; in test [3] it was 16.68 ± 0.03 µM; in test [4], 41 ± 0.07 µM; in test [5] it was 26.3 ± 1.03 µM; in test [6] it was 18.1 ± 1.03 µM.
Turning to `O=C(OCCCOC(=O)c1cc2c3ccccc3n(Cc3ccccc3F)c2cn1)c1cc2c3ccccc3n(Cc3ccccc3F)c2cn1` [Compound 6s], the IC50 in test [1] was found to be 6.12 ± 0.03 µM; in test [2], 25.2 ± 1.12 µM; in test [3], 14.71 ± 0.08 µM; in test [4], 22.82 ± 0.02 µM; in test [5], 8.06 ± 0.08 µM; in test [6], 13.77 ± 0.11 µM.
Consider `Cc1ccccc1Cn1c2ccccc2c2cc(C(=O)OCCCCCCCCOC(=O)c3cc4c5ccccc5n(Cc5ccccc5C)c4cn3)ncc21` [Compound 6k], for which the IC50 was determined as 37.4 ± 2.08 µM in test [1]; 44.9 ± 2.99 µM in test [2]; 33.9 ± 0.52 µM in test [3]; 65.85 ± 0.07 µM in test [4]; 35 ± 2.09 µM in test [5]; 36.7 ± 2.02 µM in test [6].
As to `O=C(OCCCCCCCCOC(=O)c1cc2c3ccccc3n(Cc3ccccc3F)c2cn1)c1cc2c3ccccc3n(Cc3ccccc3F)c2cn1` [Compound 6w], the IC50 in test [1] was determined as 16.5 ± 0.33 µM; in test [2] it was 76.3 ± 3.36 µM; in test [3] it was 44.57 ± 0.02 µM; in test [4], 60.78 ± 0.16 µM; in test [5], 29.98 ± 0.07 µM; in test [6], 31.3 ± 1.88 µM.
Turning to `O=C(OCCCCOC(=O)c1cc2c3ccccc3n(Cc3ccccc3)c2cn1)c1cc2c3ccccc3n(Cc3ccccc3)c2cn1` [Compound 6b], the half-inhibitory concentration (IC50) in test [1] amounted to 12.26 ± 0.04 µM; in test [2] it was 70.9 ± 2.33 µM; in test [3], 66.53 ± 0.31 µM; in test [4], 64.44 ± 0.09 µM; in test [5], 15.5 ± 0.32 µM; in test [6] it was 18.2 ± 0.52 µM.
Regarding `COC(=O)c1cc2c3ccccc3n(Cc3ccccc3)c2cn1` [Compound 4A], the IC50 in test [1] was greater than 80 µM; in test [2], greater than 80 µM; in test [3], greater than 80 µM; in test [4], 35.6 ± 0.3 µM; in test [5], greater than 80 µM; in test [6] it was greater than 80 µM.
For the molecule `COC(=O)c1cc2c3ccccc3n(Cc3ccc(C)cc3)c2cn1` [Compound 4C], the IC50 in test [1] was 28.06 ± 0.13 µM; in test [2] it was greater than 80 µM; in test [3] it was greater than 80 µM; in test [4], 35.35 ± 0.3 µM; in test [5], 47.98 ± 0.09 µM; in test [6] it was 42.6 ± 0.98 µM.
For `Cc1ccc(Cn2c3ccccc3c3cc(C(=O)OCCCOC(=O)c4cc5c6ccccc6n(Cc6ccc(C)cc6)c5cn4)ncc32)cc1` [Compound 6m], the 50% inhibitory concentration (IC50) in test [1] is 19.84 ± 0.04 µM; in test [2], 28.43 ± 0.28 µM; in test [3] it was 33.32 ± 0.03 µM; in test [4], 49.05 ± 0.12 µM; in test [5], 18.4 ± 0.31 µM; in test [6], 17.95 ± 0.02 µM.
Consider `Cc1ccc(Cn2c3ccccc3c3cc(C(=O)OCCCCCCCCOC(=O)c4cc5c6ccccc6n(Cc6ccc(C)cc6)c5cn4)ncc32)cc1` [Compound 6q], for which the IC50 in test [1] amounted to 23.65 ± 0.05 µM; in test [2], 43.1 ± 2.01 µM; in test [3], 29.8 ± 0.93 µM; in test [4], 42.06 ± 0.09 µM; in test [5] it was 35.8 ± 0.82 µM; in test [6], 45.2 ± 1.66 µM.
On to `Cc1ccc(Cn2c3ccccc3c3cc(C(=O)OCCCCOC(=O)c4cc5c6ccccc6n(Cc6ccc(C)cc6)c5cn4)ncc32)cc1` [Compound 6n], for which the 50% inhibitory concentration (IC50) in test [1] worked out at 13.4 ± 0.35 µM; in test [2], 49.1 ± 2.23 µM; in test [3] it was 42.7 ± 2.18 µM; in test [4], 26.39 ± 0.01 µM; in test [5], 37.8 ± 1.02 µM; in test [6], 28 ± 0.99 µM.
Regarding `Cc1ccccc1Cn1c2ccccc2c2cc(C(=O)OCCCOC(=O)c3cc4c5ccccc5n(Cc5ccccc5C)c4cn3)ncc21` [Compound 6g], the IC50 was found to be 18.3 ± 0.28 µM in test [1]; 53.1 ± 2.28 µM in test [2]; 73.5 ± 8.06 µM in test [3]; 32.61 ± 0.1 µM in test [4]; 29.4 ± 1.03 µM in test [5]; 17.99 ± 0.15 µM in test [6].
On to `O=c1[nH]cc(F)c(=O)[nH]1` [Compound 5-FU, 5-fluorouracil, reference compound], for which the IC50 is 15.39 ± 0.09 µM in test [1]; 57.7 ± 1.39 µM in test [2]; 52.3 ± 2.06 µM in test [3]; 16.3 ± 0.3 µM in test [4]; greater than 80 µM in test [5]; greater than 80 µM in test [6].
As to `O=C(OCCCCCCCCOC(=O)c1cc2c3ccccc3n(Cc3ccccc3)c2cn1)c1cc2c3ccccc3n(Cc3ccccc3)c2cn1` [Compound 6e], the IC50 in test [1] was 50.3 ± 3.15 µM; in test [2] it was greater than 80 µM; in test [3], 75.4 ± 0.89 µM; in test [4], greater than 100 µM; in test [5], 69.97 ± 0.13 µM; in test [6], 54 ± 0.56 µM.
Take `O=C(OCCCOC(=O)c1cc2c3ccccc3n(Cc3ccccc3)c2cn1)c1cc2c3ccccc3n(Cc3ccccc3)c2cn1` [Compound 6a]: the IC50 was determined as 24.27 ± 0.12 µM in test [1]; 73.5 ± 0.88 µM in test [2]; 25.7 ± 0.32 µM in test [3]; 32.57 ± 0.1 µM in test [4]; 17.76 ± 0.17 µM in test [5]; 17.89 ± 0.03 µM in test [6].
As to `Cc1ccc(Cn2c3ccccc3c3cc(C(=O)OCCCCCCOC(=O)c4cc5c6ccccc6n(Cc6ccc(C)cc6)c5cn4)ncc32)cc1` [Compound 6p], the 50% inhibitory concentration (IC50) amounted to 19.28 ± 0.02 µM in test [1]; 55 ± 2.22 µM in test [2]; 26.8 ± 0.51 µM in test [3]; 47.6 ± 0.02 µM in test [4]; 17.8 ± 0.22 µM in test [5]; 15.7 ± 0.33 µM in test [6].
Turning to `O=C(OCCCCOC(=O)c1cc2c3ccccc3n(Cc3ccccc3F)c2cn1)c1cc2c3ccccc3n(Cc3ccccc3F)c2cn1` [Compound 6t], the IC50 was 12.4 ± 0.59 µM in test [1]; 25.7 ± 1.21 µM in test [2]; 18.26 ± 0.18 µM in test [3]; greater than 100 µM in test [4]; 9.01 ± 0.19 µM in test [5]; 15.2 ± 0.32 µM in test [6].
With `O=C(OCCCCCCOC(=O)c1cc2c3ccccc3n(Cc3ccccc3F)c2cn1)c1cc2c3ccccc3n(Cc3ccccc3F)c2cn1` [Compound 6v], the IC50 in test [1] was found to be 7.95 ± 0.06 µM; in test [2], 42.4 ± 2.08 µM; in test [3], 24.65 ± 0.06 µM; in test [4], 67.75 ± 0.11 µM; in test [5] it was 8.6 ± 0.13 µM; in test [6] it was 22.9 ± 1.36 µM.
On to `O=C(OCCCCCCOC(=O)c1cc2c3ccccc3n(Cc3ccccc3)c2cn1)c1cc2c3ccccc3n(Cc3ccccc3)c2cn1` [Compound 6d], for which the IC50 came out at 40.03 ± 0.15 µM in test [1]; 75.5 ± 2.32 µM in test [2]; 33.49 ± 0.01 µM in test [3]; 66.99 ± 0.1 µM in test [4]; 58.4 ± 0.72 µM in test [5]; 32.36 ± 0.02 µM in test [6].
As for `Cc1ccc(Cn2c3ccccc3c3cc(C(=O)OCCCCCOC(=O)c4cc5c6ccccc6n(Cc6ccc(C)cc6)c5cn4)ncc32)cc1` [Compound 6o], the IC50 in test [1] amounted to 11.2 ± 0.61 µM; in test [2], 49.4 ± 1.65 µM; in test [3] it was 36.62 ± 0.12 µM; in test [4], 31.28 ± 0.07 µM; in test [5], 17.18 ± 0.03 µM; in test [6], 18.8 ± 0.46 µM.
